Test results published in patent US20240173333A1, “Treating Alagille Syndrome (ALGS)” (priority 2022, published 2024).
Several values for one entry are separate records, joined by “and”; a condition that tells them apart may be missing. Identical values can stand only once.

Key:
Type in all cases: in vivo, human
[1] = system: patients with Alagille syndrome (ALGS); assay: ASSERT: ObsRO sleep parameters and daytime tiredness
From the text: […] Additional secondary efficacy endpoints were as follows: • Change from baseline in pruritus to Month 6 (Weeks 21 to 24) as measured by the Albireo PRO instrument. • Percentage of patients achieving a clinically meaningful decrease in pruritus (pruritis responders) as measured by the ObsRO/PRO instruments. • Change from baseline through Week 24 in patient reported and observer reported itching and scratching severity scores, respectively, for the morning assessment and for the evening assessment; sleep parameters as measured with the Albireo ObsRO/PRO instruments (e.g., tiredness and number of awakenings); and PedsQL subdomain scores. • Assessment of Global Symptom Relief to from baseline to Weeks 4, 12, and 24 as measured by patient, caregiver, and clinician Global Impression of Symptoms GIS (PGIS, CaGIS, CGIS) items. • Change from baseline to Week 24 in xanthomatosis as assessed by the Clinician Xanthoma Scale; serum bile acid levels; serum ALT concentration; and serum AST concentration; gamma-glutamyl transferase concentration; total bilirubin concentration. • Change from baseline in biochemical markers and measures of bile acid synthesis (autotaxin, p-C4, only in patients >10 kg); and total cholesterol concentration.
Itching, Scratching, and Sleep Parameters. Itching, observed scratching, and sleep disturbance were recorded twice each day via eDiary. Patients and/or caregivers were instructed to complete the eDiary every day in the morning after the patient woke and in the evening just before the patient went to sleep throughout the study. The eDiary included ObsRO and PRO items. The PRO items assessed severity of itch, aspects of sleep disturbance (morning diary only), and tiredness. The ObsRO items assessed severity of observed scratching, aspects of observed sleep disturbance (morning diary only), and signs of tiredness (evening diary only). The ObsRO and PRO scratching and itch severity items used 0 to 4 response scales.

[2] = system: patients with Alagille syndrome (ALGS); assay: ASSERT: global impression of change (CGIC, CaGIC, PGIC) and exit survey; conditions: week 24
Procedure: FIG. 27 is a table showing global impressions of change (GIC) over time. GIC items are assessed on a 7-point scale: 1=very much better; 2=much/moderately better; 3=a little better; 4=no change; 5=a little worse; 6=much/moderately worse; 7=very much worse. Changes based on the GIC were analyzed using a proportional odds model with treatment and baseline GIS scores as covariates considering three categories (better, no change, worse). Better includes “very much better,” “much better,” and “a little better,” and worse includes “a little worse,” “much worse,” and “very much worse.” CaGIC=Caregiver Global Impression of Change. CGIC=Clinician Global Impression of Change. PGIC=Patient Global Impression of Change. Global Impression of Change and Global Impression of Symptom Measures. Patients (≥8 years of age), caregivers, and clinicians completed global impression of change (GIC) measures (patient global impression of change (PGIC), caregiver global impression of change (CaGIC), and clinical global impression of change (CGIC)) and the global impression of symptoms (GIS) measures (patient global impression of symptoms (PGIS), caregiver global impression of symptoms (CaGIS), clinical global impression of symptoms (CGIS)) at randomization (Study Day 1; PGIS only), Week 4, 12, and 24/EOT. The GIC items assessed changes in itch (patient version), scratching (caregiver and clinician versions), and sleep (all versions) since starting the study drug. The GIS items assessed itch (patient version), scratching (caregiver and clinician versions), and sleep (all versions) in the past week. Caregivers and clinicians completed the GIC and GIS for all patients; those patients ≥8 years of age completed the patient version.

[3] = system: patients with Alagille syndrome (ALGS); assay: Pooled ASSERT and ASSERT-EXT: TEAEs
Procedure: In the completed 24-week ASSERT study, patients with ALGS with history of significant pruritus and elevated serum BAs were randomized 2:1 to once-daily odevixibat 120 μg/kg or placebo, respectively. Patients who completed ASSERT could enter ASSERT-EXT, an ongoing, 72-week open-label extension study in which all patients receive odevixibat 120 μg/kg/day. This pooled analysis included all odevixibat-treated patients from ASSERT and/or ASSERT-EXT and spans from patients' first dose of odevixibat to a data cut-off of Sep. 9, 2022. Assessments over up to 36 weeks of treatment included change in observer-reported scratching scores and sleep parameters, as well as levels of serum BAs, autotaxin (a proposed meditator of pruritus), and 7 alpha-hydroxy-4-cholesten-3-one (C4; a marker of bile acid synthesis). Safety evaluations included assessment of alanine aminotransferase (ALT), total bilirubin, and treatment-emergent adverse events (TEAEs).

[4] = system: patients with Alagille syndrome (ALGS); assay: ASSERT: global impression of change (CGIC, CaGIC, PGIC) and exit survey; conditions: post hoc analysis; completion of study
[5] = weeks 21-24, caregiver-reported

Structure (SMILES): CCCCC1(CCCC)CN(c2ccccc2)c2cc(SC)c(OCC(=O)N[C@@H](C(=O)N[C@@H](CC)C(=O)O)c3ccc(O)cc3)cc2S(=O)(=O)N1 [odevixibat, 1,1-dioxo-3,3-dibutyl-5-phenyl-7-methylthio-8-(N-{(R)-α-[N-((S)-1-carboxypropyl)carbamoyl]-4-hydroxybenzyl}carbamoylmethoxy)-2,3,4,5-tetrahydro-1,2,5-benzothiadiazepine]
- mean reduction from baseline in daytime tiredness (5-point scale 0-4) ([1]; baseline to weeks 21 to 24, caregiver-rated): −1.1
- LS mean change from baseline, percent of days sleeping with caregiver [1, 5]: −35%
- LS mean change from baseline, percent of days with help falling asleep [1, 5]: −43%
- LS mean change from baseline, percent of days with soothing [1, 5]: −47%
- CGIC for scratching, percentage of clinician responses (improved) [2]: 80%
- CGIC for sleep, percentage of clinician responses (improved) [2]: 74%
- CaGIC for scratching, percentage of caregiver responses (improved pruritus) [2]: 87% and 88%
- CaGIC for sleep, percentage of caregiver responses (improved sleep) [2]: 78%
- PGIC for itching, percentage of patient responses (improved) ([2]; patients ≥8 years): 80%
- PGIC for sleep, percentage of patient responses (improved) ([2]; patients ≥8 years): 70%
- odds of improvement in sleep, relative to placebo (CaGIC) ([2]; proportional odds model): nine times higher
- odds of improvement versus no change or worsening in scratching, relative to placebo (CaGIC) ([2]; proportional odds model): 15 times
- TEAEs that led to study discontinuation [3]: No patient
- patients reporting drug-related diarrhea ([3]; 6 of 52): 12%
- patients reporting drug-related TEAEs ([3]; 15 of 52): 29%
- patients reporting TEAEs ([3]; 43 of 52): 83%
- Any TEAE ([3]; n=52): 43 (83) n (%)
- Drug-related TEAE: Abdominal pain ([3]; n=52): 2 (4) n (%)
- Drug-related TEAE: Abdominal pain upper ([3]; n=52): 2 (4) n (%)
- Drug-related TEAE: Diarrhea ([3]; n=52): 6 (12) n (%)
- Drug-related TEAE: Vomiting ([3]; n=52): 2 (4) n (%)
- Drug-related TEAEs ([3]; n=52): 15 (29) n (%)
- Drug-related serious TEAEs ([3]; n=52): 1 (2) n (%)
- Serious TEAEs ([3]; n=52): 6 (12) n (%)
- Severe TEAEs ([3]; n=52): 7 (14) n (%)
- tolerability ([3]; up to 36 weeks): generally well tolerated
- caregivers reporting meaningful change in the patient since the start of treatment (exit survey) [4]: 78%
